# Source: patent US20220160721A1, “METHODS OF TREATING CANCER” (Epizyme, Inc., priority 2016, published 2022)
# What was measured:
# TOV112D xenografts = assay: In vivo efficacy study, TOV112D xenograft; set-up: species or system BALB/c nude mice; conditions: day 14
# Procedure: (§1) In vivo efficacy studies: For the in vivo efficacy studies, there were 10 mice per dose group and each mouse was inoculated subcutaneously at the right flank. All cells were suspended in a 0.2 mL mixture of base media and Matrigel at 1:1 for tumor development. Bin-67 cells were inoculated at 5×10^6 cells/mouse and treatment began when the mean tumor sizes reached 146.08 mm^3 (28 days post-inoculation). COV434 cells were inoculated at 1×10^7 cells/mouse and treatment began when mean tumor sizes reached 158.88 mm^3 (20 days post-inoculation). TOV112D cells were inoculated at 5×10^6 cells/mouse and treatment began when the mean tumor size reached 128.13 mm^3 (day 14 post inoculation). Mice were assigned into groups using a randomized block design. […] Body weights were measured twice a week for the duration of the study. Tumor size was measured twice weekly in two dimensions using a caliper, and the volume was expressed in cubic millimeters. Animals were euthanized 3 hours post-final dose, with blood and tissues collected for analysis.
# [1] = mouse, in vivo, po
# Procedure: as §1
# COV434 = assay: Time course annexin and cell cycle, COV434; assay type: cell-based; conditions: COV434, after 3 days through day 14
# Procedure: (§2) 1×10^5 harvested cells were plated in triplicate in 96-well format and stained with Millipore's Guava Nexin reagent for 1 hr at RT. Percentages of cells undergoing apoptosis were measured using Millipore's Guava EasyCyte Flow Cytometer. For cell cycle analysis, 5×10^5 cells were plated in a 96 well plate, washed once with PBS, and fixed overnight in ice-cold 70% ethanol at 4° C. Fixed cells were washed with PBS, then stained with Millipore's Guava Cell Cycle Reagent and data obtained from EasyCyte Flow Cytometer.
# Oral bioavailability = conditions: in vivo
# JHOS-2 = assay: Time course annexin and cell cycle, JHOS-2; assay type: cell-based; conditions: JHOS-2 (wild type for both SMARCA2 and SMARCA4)
# Procedure: as §2, with “Percentages” for “1×10^5 harvested cells were plated in triplicate in 96-well format and stained with Millipore's Guava Nexin reagent for 1 hr at RT. Percentages”
# SMARCA2 = SMARCA2 expression upon treatment in SCCOHT cell lines; assay type: cell-based; conditions: over time
# COV434 xenografts = assay: In vivo efficacy study, COV434 xenograft; set-up: species or system BALB/c nude mice
# Bin-67 = assay: Time course annexin and cell cycle, Bin-67; assay type: cell-based; conditions: Bin-67, apoptotic events as early as day 4
# Procedure: as §2, with “Percentages” for “1×10^5 harvested cells were plated in triplicate in 96-well format and stained with Millipore's Guava Nexin reagent for 1 hr at RT. Percentages”
# Bin-67 xenografts = assay: In vivo efficacy study, Bin-67 xenograft; set-up: species or system BALB/c nude mice; conditions: day 18
# Procedure: as §1
# [2] = Plasma exposure in xenograft efficacy studies; assay type: in vivo, BALB/c nude mice; conditions: plasma collected 5 minutes prior or 3 hours post final dose, all models
# Procedure: as §1
# H3K27me3 = H3K27me3 ELISA in xenograft tumors; conditions: tumors harvested at study endpoints, ratio of H3K27me3 to total H3 by ELISA
compound,measurement,setting,value
CCN(c1cc(-c2ccc(CN3CCOCC3)cc2)cc(C(=O)NCc2c(C)cc(C)[nH]c2=O)c1C)C1CCOCC1 [tazemetostat],tumor growth inhibition (TGI),TOV112D xenografts; 125 mg/kg orally BID,28%
same,tumor growth inhibition (TGI),TOV112D xenografts; 500 mg/kg orally BID,35%
same,"tolerability, bodyweight loss and clinical observations",[1],well tolerated with minimal bodyweight loss and no other clinical observations
same,cell cycle and apoptosis,COV434,increase in the percentage of cells in sub-G1 phase and a concomitant reduction in G2 phase
same,oral bioavailability,Oral bioavailability,orally bioavailable
same,cell cycle and apoptosis,JHOS-2,did not show any cell cycle changes or apoptotic events
same,SMARCA2 expression,SMARCA2,time-dependent increases in SMARCA2 expression
same,tumor growth inhibition (TGI),"COV434 xenografts; 125 mg/kg orally BID, day 28",74%
same,tumor regrowth,"COV434 xenografts; 500 mg/kg cohort, 28 days after dose cessation",not observed
same,animals having unmeasurable tumors,"COV434 xenografts; 500 mg/kg orally BID, day 28",7 of the 8
same,tumor response,"COV434 xenografts; 500 mg/kg orally BID, day 28",complete regressions
same,cell cycle and apoptosis,Bin-67,more modest increase in the percentage of sub-G1 cells
same,tumor growth inhibition (TGI),Bin-67 xenografts; 125 mg/kg orally BID,56%
same,tumor growth inhibition (TGI),Bin-67 xenografts; 250 mg/kg orally BID,87%
same,average tumor volume,Bin-67 xenografts; 500 mg/kg orally BID,41 mm^3
same,tumor response,Bin-67 xenografts; 500 mg/kg orally BID,regressions in all 10 animals
same,systemic exposure in plasma,[2],Dose-dependent systemic exposure
same,H3K27me3 levels in tumors,H3K27me3,robust inhibition
